Results: patent US8193213B2, “Spermicidal and/or antifungal composition and methods of using the same” (priority 2003, dated 2012)
Marks after values point to notes of the source that are not given here.

How the values were obtained:
[1] = system: adult male Swiss mice; test: Antispermatogenic screen: single gavage dose to male mice, testes weight and Spermatogenic Index at 72 h; assay type: in vivo; conditions: racemic compounds, day 3 (72 h), vehicle 90% water, 7% Tween20, 3% ethanol
Experimental: The compounds of the invention were tested in mice for their effects on spermatogenesis three days after a single oral dose by the procedure described in Cook et al (1995) below. Compounds active in this test have been shown also to be anti-fertility compounds.
Compounds were screened for antispermatogenic activity by dosing male mice on day 1 with a gavage dose of control vehicle, positive control (compound 1) or compound of the invention. At 72 h after dosing, animals were killed and the testes were excised, trimmed of fat, and weighed. One testis was examined histologically and rated for spermatogenic potential using the Spermatogenic Index (J. M. Whitsett, P. F. Noden, J. Cherry and A. D. Lawton, J. Reprod. Fertil., 72, 277 (1984), which is a semiquantitative estimate of the sperm producing ability of the testes The index is based on histological appearance of the spermatogenic cells in the seminiferous tubules. A scale of 1 to 6 is used with 5 to 6 being the normal status. A second assessment was based on the weight of the testes.
Tables 1 and 2 show pertinent biological results in terms of the change in testes weight (TW) and spermatogenic index (SI) relative to a control containing only the administration vehicle, but no indenopyridine. In Tables 1 and 2, R^3 and R^4 refer to structures Ib, where R^3 is in the para position; R^1 is ethyl; R^2 is methyl; and R^5 is hydrogen.

[2] = system: rabbit ejaculated sperm; test: Direct effect on sperm motility, rabbit ejaculated sperm; assay type: cell-based; conditions: for Motility (%) at 60 Minutes: rabbit ejaculate diluted 1:10, 34° C., control 76.6
Experimental: (§1) Method for Determining Direct Effect of an Agent on Sperm Motility The direct effect of an agent on sperm motility was determined by using the following protocols. Basically, sperm are obtained either from the cauda epididymis, as in the case of the rat, or ejaculated sperm collected using an artificial vagina, as in the rabbit. The initial motility of the sperm is determined manually or by using a Hamilton Thorn IVOS sperm analyzer. The sperm are then kept at a constant temperature of 34° C., diluted to a consistent concentration of 10×10^6/ml, and added to about 3 ml of buffer or media. The motility is determined again at this point and any change is recorded. Different concentrations of the agent to be tested are then added to the sperm preparation. The sperm samples are then held at the same temperature for one hour and the motility is determined. The results are recorded as the percent of motile sperm in the sample. The Sperm were kept at 34° C. throughout the experimental period. Sperm concentration was be approximately 10×10^6/ml (note, the sample may have had to be diluted with buffer or media to reach this concentration). For the Rabbit Studies: (Using Ejaculated Sperm) A 1 mM stock of the indenopyridine in M-199 media with BSA (2.5 mg in 5=0.5 ug/ul; 0.5 ug/ml=1 uM) was prepared and added as follows: 1 uM=1 ul stock+949 ul M-199 media with BSA+50 ul of the diluted sperm 3 uM=3 ul stock+947 ul M-199 media with BSA+50 ul of the diluted sperm 10 uM=10 ul stock+940 ul M-199 media with BSA+50 ul of the diluted sperm 30 uM=30 ul stock+920 ul M-199 media with BSA+50 ul of the diluted sperm 100 uM=100 ul stock+850 ul M-199 media with BSA+50 ul of the diluted sperm 300 uM=300 ul stock+650 ul M-199 media with BSA+50 ul of the diluted sperm 1000 uM=1000 ul stock+50 ul of the diluted sperm Sperm motility was determined after 1 hour. Slides were made to determine morphology changes and eosin was added to determine cell death.

[3] = system: rat cauda sperm; test: Direct effect on sperm motility, rat cauda epididymis sperm; assay type: cell-based; conditions: control: progressive motility
Experimental: as §1, with “the Rat” for “the Rabbit”, “(Using Sperm from the Cauda Epididymis)” for “(Using Ejaculated Sperm)”, “in HBSS buffer+BSA (5” for “in M-199 media with BSA (2.5”, “in 10=0.5” for “in 5=0.5”, “ul HBSS buffer+BSA+50” for “ul M-199 media with BSA+50”, “Sperm Motility” for “Sperm motility”

[4] = system: Candida albicans; test: Antifungal susceptibility testing (NCCLS, MIC/MFC) against C. albicans; assay type: cell-based; parameters: Lowest [Active]: unit not given here; conditions: for CFU for MFC at 200: concentration 200; for CFU for MFC at 300: concentration 300; for Lowest [Active]: concentrations 300, 200, 100, unit not given, N/A = no active concentration; for Lowest MIC: lowest concentration that appears to have no growth
Experimental: (§2) Antifungal susceptibility testing was performed following the NCCLS guidelines with minor modifications. Briefly, a suspension of Candida albicans cells was prepared from pure cultures grown overnight on yeast-malt extract (YM) agar at 35° C. Several small colonies were removed from a YM agar plate and transferred to 5 ml of 0.85% saline. The cells were suspended by 15 seconds of vortexing and the cell density of the resulting suspension was determined using a spectrophotometer. The cell density was adjusted by addition of 0.85% saline until the transmittance matched that of a 0.5 McFarland standard when measured at a wavelength of 530 nm. An aliquot of this suspension was diluted 1:1000 in RPMI-MOPS to yield a working suspension. A similar suspension of Aspergillus fumigatus spores was obtained by using spores stored at […] in 0.85% saline. These spores were diluted in 0.85% saline to match the McFarland standard transmittance. This suspension was then further diluted 1:50 in RPMI-MOPS to produce the working inoculum suspension.
(§3) Dilution series of the test compounds were made in RPMI-MOPS containing 2% DMSO. An aliquot of each dilution was added in duplicate to the wells of a sterile 96-well, flat bottom microtiter plate. Then, an aliquot of either the C. albicans cell suspension or the A. fumigatus spore suspension were added to each well for a final volume of 200 μl. The plates were then incubated at […]. […] A similar determination was made for the A. fumigatus plates after 48 hours. […] The numbers of colony forming units (CFU) were counted and these values used to calculate the percent survival of cells or spores in inocula relative to the number of CFUs in the working inoculum suspension. The minimum fungicidal concentration (MFC) was the lowest concentration of test compound with a percent survival of less than 2%.

[5] = system: Aspergillus fumigatus; test: Antifungal susceptibility testing (NCCLS, MIC/MFC) against A. fumigatus; assay type: cell-based; parameters: Lowest [Active]: unit not given here; conditions: for CFU for MFC at 100 / CFU for MFC at 200 / CFU for MFC at 300 / Lowest [Active]: A. fumigatus (48 hours); for CFU for MFC at 100: concentration 100; for CFU for MFC at 200: concentration 200; for CFU for MFC at 300: concentration 300; for Lowest [Active]: concentrations 300, 200, 100, unit not given, N/A = no active concentration; for Lowest MIC: lowest concentration that appears to have no growth
Experimental: as §2, §3

## CCN1CC[C@@H]2[C@@H](c3ccc(C(=O)OC)cc3)c3cc(C)c(I)cc3[C@@H]2C1.Cl (racemic) [Compound 18, (4aRS,5SR,9bRS)-2-Ethyl-2,3,4,4a,5,9b-hexahydro-8-iodo-7-methyl-5-(4-carbomethoxyphenyl)-1H-indeno[1,2-c]pyridine Hydrochloride]
[1]; 1 mg/kg single gavage dose
  SI change (%) (Spermatogenic Index, % change from vehicle control): −57%*
  TW change (%) (testes weight, % change from vehicle control): −16%
[1]; 3 mg/kg single gavage dose
  SI change (%) (Spermatogenic Index, % change from vehicle control): −69%*
  TW change (%) (testes weight, % change from vehicle control): −27%*
[1]; 10 mg/kg single gavage dose
  SI change (%) (Spermatogenic Index, % change from vehicle control): −74%*
  TW change (%) (testes weight, % change from vehicle control): −36%*
other
  melting point: > 190 °C (dec.)

## CCN1CC[C@@H]2[C@@H](c3ccc(C(=O)O)cc3)c3cc(C)ccc3[C@@H]2C1.Cl (racemic) [Compound 2, (4aRS,5SR,9bRS)-2-Ethyl-2,3,4,4a,5,9b-hexahydro-7-methyl-5-(4-carboxyphenyl)-1H-indeno[1,2-c]pyridine Hydrochloride]
[1]; 10 mg/kg single gavage dose
  SI change (%) (Spermatogenic Index, % change from vehicle control): −24%*
  TW change (%) (testes weight, % change from vehicle control): 2%
[1]; 30 mg/kg single gavage dose
  SI change (%) (Spermatogenic Index, % change from vehicle control): −52%*
  TW change (%) (testes weight, % change from vehicle control): −7%
other
  melting point: 280 °C (dec.)

## CCN1CC[C@@H]2[C@@H](c3ccc(C(=O)OC)cc3)c3cc(C)ccc3[C@@H]2C1.Cl (racemic)
other
  melting point: 204 °C

## CCN1CCC2C(C1)c1cc(I)c(C)cc1C2c1ccc(C(=O)OC)cc1.Cl (stereo not drawn) [Compound 4587-073l]
[2]; +1 μM
  Motility (%) at 60 Minutes: 73.0%
[2]; +3 μM
  Motility (%) at 60 Minutes: 68.4%
[2]; +10 μM
  Motility (%) at 60 Minutes: 67.6%
[2]; +30 μM
  Motility (%) at 60 Minutes: 61.9%
[2]; +100 μM
  Motility (%) at 60 Minutes: 15.2 * %
[2]; +300 μM
  Motility (%) at 60 Minutes: 0%
[2]; +1000 μM
  Motility (%) at 60 Minutes: 0 ** %
[2]; rabbit sperm, +100 μM, 60 minutes
  Quality of motility (footnote *): * Motility not progressive - twitching
[2]; rabbit sperm, +1000 μM, 60 minutes
  Sperm appearance: ** Sperm appeared to be “disintegrating”- sperm heads contain many vacuoles and membranes are not always intact
[3]; +1 μM
  Motility (%) at 60 Minutes (in words): Progressive motility-equal to control
[3]; +3 μM
  Motility (%) at 60 Minutes (in words): Progressive motility diminished
[3]; +10 μM
  Motility (%) at 60 Minutes (in words): No progressive motility - twitching
[3]; +30 μM
  Motility (%) at 60 Minutes (in words): Same as for 10 μM
[3]; +100 μM
  Motility (%) at 60 Minutes (in words): Death
[4]; C. albicans (19 hours), concentration 100
  CFU for MFC at 100: Cidal (Cidal = >98% killed)
[4]; C. albicans (19 hours)
  CFU for MFC at 200: Cidal (Cidal = >98% killed)
  CFU for MFC at 300: Cidal (Cidal = >98% killed)
  Lowest [Active]: 100
[5]
  CFU for MFC at 100: Cidal (Cidal = >98% killed)
  CFU for MFC at 200: Cidal (Cidal = >98% killed)
  CFU for MFC at 300: Cidal (Cidal = >98% killed)
  Lowest [Active]: 100

## CC(=O)N1CCN(c2ccc(OCC3COC(Cn4ccnc4)(c4ccc(Cl)cc4Cl)O3)cc2)CC1 (stereo not drawn) [Ketaconazole, reference compound]
[4]; C. albicans
  Lowest MIC: 32 µg/mL
[5]; A. fumigatus
  Lowest MIC: 8 µg/mL

## CCN1CCC2C(C1)c1ccc(C)cc1C2c1ccc(C(=O)OC)cc1.Cl (stereo not drawn) [Compound 4587-056l]
[4]; C. albicans (19 hours)
  CFU for MFC at 200: Cidal (Cidal = >98% killed)
  CFU for MFC at 300: Cidal (Cidal = >98% killed)
  Lowest [Active]: 200
[5]
  CFU for MFC at 100: Cidal (Cidal = >98% killed)
  CFU for MFC at 200: Cidal (Cidal = >98% killed)
  CFU for MFC at 300: Cidal (Cidal = >98% killed)
  Lowest [Active]: 100

## CCN1CCC2C(C1)c1ccc(C)cc1C2c1ccc(C)cc1.Cl (stereo not drawn) [Compound 4587-003]
[4]; C. albicans
  Lowest MIC: 50 µg/mL
[4]; C. albicans, lowest concentration that kills >= 98% of the cells in the well
  Lowest MFC: 75 µg/mL
[5]; A. fumigatus
  Lowest MIC: 25 µg/mL
[5]; A. fumigatus, lowest concentration that kills >= 98% of the cells in the well
  Lowest MFC: 25 µg/mL
